# Measured values published in article PMC13696528, “Combined Immune‐Peptide Nanofiber with HSP70/AKT/mTOR Axis Blockade Enhances Photothermal Immunotherapy, Inhibiting Tumor Growth and Recurrence” (Advanced Science, 2026).
# Assays:
# CT26 cells = test: Colony formation assay after PTIT; format: cell-based, mouse; conditions: PSP@IR-CF3 + NIR plus VER-155008 (0.2 μM) or Rapa (10 nM), 14 days, n = 3
# Protocol: CT26 cells were harvested and prepared as a single-cell suspension. […] Following the indicated treatments, cells were cultured under standard conditions (37 °C, 5% CO₂) for 14 days until visible colonies had formed.
# The culture medium was then removed, and the cells were gently washed with PBS. Colonies were fixed with 4% paraformaldehyde for 10–15 min and stained with crystal violet for 10–20 min. Excess dye was removed by washing with distilled water, and the plates were air-dried. Colonies were quantified using ImageJ software (RRID:SCR_003070).
# [1] = system: CT26-Luc tumor-bearing mice; test: In vivo recurrence study with HSP70 inhibition; parameters: species or system mouse; conditions: combined with PTIT (PSP@IR-CF3 + NIR), VER-155008 20 mg kg⁻¹ d⁻¹ i.p. 7 days, n = 10, 28 days
# Protocol: CT26-Luc cells were cultured under standard conditions and harvested during the logarithmic growth phase. BALB/c mice were subcutaneously inoculated with CT26-Luc cells to establish tumor-bearing models.
# In the combination group, the HSP70 inhibitor VER-155008 was administered via intraperitoneal injection at a dose of 20 mg kg⁻¹ d⁻¹ for 7 consecutive days beginning immediately after NIR irradiation. Tumor growth was monitored regularly, and mice were followed for 28 days after treatment to evaluate tumor recurrence. Tumor recurrence was defined as the reappearance of measurable tumor growth at the original treatment site following initial tumor regression.
Compound,colony formation and clonogenic recovery after PTIT (CT26 cells),recurrent tumors [1]
N#Cc1ccc(COC[C@H]2O[C@@H](n3c(NCc4ccc(Cl)c(Cl)c4)nc4c(N)ncnc43)[C@H](O)[C@@H]2O)cc1 [VER-155008],reduced colony formation and impaired clonogenic recovery,no recurrent tumors
"CO[C@H]1C[C@@H]2CC[C@@H](C)[C@@](O)(O2)C(=O)C(=O)N2CCCC[C@H]2C(=O)O[C@H]([C@H](C)C[C@@H]2CC[C@@H](O)[C@H](OC)C2)CC(=O)[C@H](C)/C=C(\C)[C@@H](O)[C@@H](OC)C(=O)[C@H](C)C[C@H](C)/C=C/C=C/C=C/1C [Rapamycin, rapamycin]",reduced colony formation and impaired clonogenic recovery,–
